According to patent US8394792B2, “Heterocyclic derivatives” (C&C Research Laboratories, priority 2008, dated 2013):
Like-named read-outs stand apart in the source and are kept apart here. Each block holds one molecule with its values, some of them ahead of it.

How the values were obtained:
[1] = cited from earlier work; for excretion rate in urine: until 72 hours after administration of benzbromarone
Cebus monkey = test: Test for uricosuric effect in Cebus monkey; assay type: in vivo; conditions: for Plasma uric acid level: 4 hours after administration
hURAT1 = biological target: T1, hURAT1 (Homo sapiens, UniProt Q96S37); test: Test for inhibiting urate reuptake activity via hURAT1 (uric acid transport assay in hURAT1-overexpressed HEK293 cell line); assay type: cell-based; conditions: hURAT1-overexpressed HEK293 cells, [14C]-uric acid uptake, 100 μM uric acid; read-out: IC50 (μM) hURAT, level of uric acid reuptake inhibition
T1 construct: expressed in transfected cells; host or cells: HEK293 (human kidney cell line), transient transfection with Fugene6
T1 sequence (Q96S37 1-553): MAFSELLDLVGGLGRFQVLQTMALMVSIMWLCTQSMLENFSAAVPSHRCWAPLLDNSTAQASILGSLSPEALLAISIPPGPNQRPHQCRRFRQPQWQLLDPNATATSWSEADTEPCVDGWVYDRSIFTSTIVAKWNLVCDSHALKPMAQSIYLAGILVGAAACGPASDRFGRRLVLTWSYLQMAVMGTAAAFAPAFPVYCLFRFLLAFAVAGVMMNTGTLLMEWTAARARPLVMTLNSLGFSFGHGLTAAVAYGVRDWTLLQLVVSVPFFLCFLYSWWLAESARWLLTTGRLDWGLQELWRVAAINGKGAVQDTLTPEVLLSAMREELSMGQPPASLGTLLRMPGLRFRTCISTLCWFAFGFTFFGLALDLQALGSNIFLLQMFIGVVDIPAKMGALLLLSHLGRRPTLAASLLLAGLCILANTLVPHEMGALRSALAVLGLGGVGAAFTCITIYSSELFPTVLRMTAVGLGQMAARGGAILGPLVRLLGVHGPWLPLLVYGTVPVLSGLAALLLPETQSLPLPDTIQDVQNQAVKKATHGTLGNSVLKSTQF

CYP2C9 [2] = biological target: T2, CYP2C9 (Homo sapiens, UniProt P11712); test: biochemical
[3] = Test for solubility according to pH; assay type: physicochemical; conditions: 37° C. 2 hours
CYP2C9 [4] = biological target: T2, CYP2C9
[5] = 2 tablets (50 mg/tablet) benzbromarone one time, healthy fasting adult
[6] = oral 15 mg/kg, during 0~8 hours

T2 sequence (P11712 whole entry): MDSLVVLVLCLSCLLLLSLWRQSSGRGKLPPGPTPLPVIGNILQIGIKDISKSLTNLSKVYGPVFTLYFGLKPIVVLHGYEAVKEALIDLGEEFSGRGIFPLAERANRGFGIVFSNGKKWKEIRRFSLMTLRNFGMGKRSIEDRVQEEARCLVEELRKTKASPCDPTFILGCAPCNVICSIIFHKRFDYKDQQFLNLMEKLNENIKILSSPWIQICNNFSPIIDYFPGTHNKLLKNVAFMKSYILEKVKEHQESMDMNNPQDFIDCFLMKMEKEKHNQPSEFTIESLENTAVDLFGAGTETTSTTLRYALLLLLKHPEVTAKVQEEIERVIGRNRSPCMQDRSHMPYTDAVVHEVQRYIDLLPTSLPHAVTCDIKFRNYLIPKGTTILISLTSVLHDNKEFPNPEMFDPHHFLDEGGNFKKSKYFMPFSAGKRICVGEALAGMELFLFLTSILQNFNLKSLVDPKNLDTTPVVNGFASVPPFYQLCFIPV

SMILES: CCc1oc2cc(O)ccc2c1C(=O)c1cc(Br)c(O)c(Br)c1 [6-hydroxy benzbromarone]
half-life of drug [1, 5]: 18.0 ± 2.9 h
maximum concentration of drug (Cmax) [1, 5]: 1.7 ± 0.4 µg/mL
time of maximum drug concentration in blood (Tmax) [1, 5]: 4.8 ± 1.3 h
excretion rate in urine [1]: 1.2 % of the administered amount

SMILES: CCc1oc2ccccc2c1C(=O)c1cc(Br)c(O)c(Br)c1 [Benzbromarone, reference compound]
Plasma uric acid level (Cebus monkey; oral 15 mg/kg): 3.80 mg/dL
Fractional excretion rate of uric acid (FEua) (Cebus monkey; [6]): 20.0±10.5%
area under the curve (AUC) [1, 5]: 15.9 ± 3.3 µg·h/mL
half-life of drug [1, 5]: 5.4 ± 1.9 h
time of maximum drug concentration in blood (Tmax) [1, 5]: 2.7 ± 1.0 h
excretion rate in urine [1]: not detected

SMILES: O=C(c1cc(Br)c(O)c(Br)c1)N1CCOc2ccncc21 [Compound 4, (3,5-dibromo-4-hydroxy-phenyl)-(2,3-dihydro-pyrido[4,3-b][1,4]oxazin-4-yl)-methanone]
enhanced uricosuric effect compared with Benzbromarone (Cebus monkey; 15 mg/kg, during 0~8 hours): 160%
Plasma uric acid level (Cebus monkey; oral 3.75 mg/kg): 3.88 mg/dL
Fractional excretion rate of uric acid (FEua) (Cebus monkey; oral 3.75 mg/kg, during 0~8 hours): 24.1±13.3%
Plasma uric acid level (Cebus monkey; oral 7.5 mg/kg): 3.66 mg/dL
Fractional excretion rate of uric acid (FEua) (Cebus monkey; oral 7.5 mg/kg, during 0~8 hours): 31.6±13.3%
Plasma uric acid level (Cebus monkey; oral 15 mg/kg): 3.40 mg/dL
Fractional excretion rate of uric acid (FEua) (Cebus monkey; [6]): 33.2±19.8%
IC50 (hURAT1): 0.023 µM
IC50 (CYP2C9 [2]): 24.3 µM
Solubility (μg/mL) pH 1.2 ([3]; first solution pH about 1.2, 2 mg/mL): 1927 μg/mL
Solubility (μg/mL) pH 6.8 ([3]; second solution pH about 6.8, 2 mg/mL): 970 μg/mL

IC50 (CYP2C9 [4]): > 20 µM
SMILES: O=C(CN1C(=O)COc2ccncc21)c1cc(Br)c(O)c(Br)c1 [Compound 56]
